This is an account of results in patent US20060183797A1, “Fatty alcohols and fatty acid esters useful for treatment of inflammation” (priority 2001, published 2006).

Format in all cases: in vivo
The subject of assay [1] is adjuvant arthritis (AA). In words: Adjuvant arthritis (AA) in Lewis rats, inhibition of inflammation. Particulars: for % Inhibition (100 μl) of the inflammation of adjuvant arthritis: 100 μl SC once, 14 days before induction of AA or on day 12 after induction, day of maximal inflammation. As for the experimental part: AA was induced by immunizing inbred 8-10-week old Lewis rats (Harlan-Olac Limited, Blackthorn, Oxon, UK), at the base of the tail with 1 mg/0.1 ml of killed Mycobacterium tuberculosis (Sigma) in IFA (Sigma) as described (Pearson, 1956). Arthritis of the limbs was noted to develop 12-14 days later and was scored on a scale of 0-16 summing the severity of the inflammation of each of the 4 limbs on a scale of 0-4, as described (Holoshitz et al., 1983). The peak of the arthritis usually was observed around day 26 after immunization.
Control rats were untreated or treated by injections of saline. A positive control of immunosuppression was obtained by including a group of rats treated with the corticosteroid agent dexamethasone (200 μg) administered intraperitoneally every other day beginning on day 12 after induction.
The immunomodulator of the invention (100 μl oleyl alcohol, glycerol mono-oleate, linolenyl alcohol or cetyl alcohol) was administered subcutaneously (SC) once 14 days before induction of AA or on day 12 after induction of AA. The percent inhibition of inflammation measured on the day of maximal inflammation was computed as follows: [formula] […]

The subject of assay [2] is adjuvant arthritis (AA). Described as above. The following applies: for suppression of inflammation on day of peak disease: day 26.
Assay [3] concerns experimental autoimmune encephalomyelitis (EAE). In words: Experimental autoimmune encephalomyelitis (EAE) in Lewis rats. Particulars: 0.5 ml/kg SC once, 14 days before EAE induction.
[4] abbreviates: vs non-treated control, listed as OA.

Structures are written as SMILES. Several values for one entry are separate records, joined by “and”; a condition that tells them apart may be missing. Equal values may be shown once.

For `CCC=CCC=CC/C=C\CCCCCCCCO` [Linolenyl alcohol, cis-9,12,15-octadecatrienol], the “% Inhibition (100 μl) of the inflammation of adjuvant arthritis” value (“% Inhibition (100 μl)” for short) in the assay with adjuvant arthritis (AA) [1] is listed as 75%.

Regarding `CCCCCCCC/C=C\CCCCCCCC(=O)OCC(O)CO` (stereo not drawn) [Glycerol mono-oleate, glycerol monooleate], the “% Inhibition (100 μl)” value in the assay with adjuvant arthritis (AA) [1] is 98%.

Regarding `CCCCCCCC/C=C\CCCCCCCC(=O)O` [oleic acid, cis-9-octadecenoic acid, reference compound], the “effect on inflammation of adjuvant arthritis (in words)” value in the assay with adjuvant arthritis (AA) [1] (Lewis rats, Example 1) is reported as “no effect”.

Turning to `CCCCCCCCCCCCCCCCO` [Cetyl alcohol, cetyl alcohol], the “% Inhibition (100 μl)” value in the assay with adjuvant arthritis (AA) [1] is given as 66%.

For the compound `CCCCCCCC/C=C\CCCCCCCCO` [Oleyl alcohol, cis-9-octadecenol], the “suppression of inflammation on day of peak disease” value amounted to 14% with adjuvant arthritis (AA) [2] (10 μl SC once 14 days before induction), 61% in the assay on adjuvant arthritis (AA) [2] (50 μl SC once 14 days before induction), 78% with adjuvant arthritis (AA) [2] (100 μl SC once 14 days before induction) and 90% in the assay on adjuvant arthritis (AA) [2] (500 μl SC once 14 days before induction). Besides, the suppression of inflammation with adjuvant arthritis (AA) [2] (500 μl, two further experiments) is 96% and 91%. Also, the “% Inhibition (100 μl)” value in the assay on adjuvant arthritis (AA) [1] came out at 78%. In addition, the “% Incidence of disease” value in assay [3] was determined as 50.0%. In addition, the “effect on EAE clinical parameters (in words)” value in assay [3] was “beneficial effect on all the clinical parameters”. Further, the “Mean Onset of disease (Day No.)” value in assay [3] (rats without EAE counted as 25 days) is listed as 18.6 Day No. Besides, in assay [3] (rats without EAE counted as zero), the “Disease duration” value is on record as 2.0 days. Besides, the “GMS (group mean score)” value in assay [3] (scale 0-5) was found to be 0.22. For the same compound, in assay [3] (scale 0-5), the “MMS (mean maximal score)” value was found to be 0.88. The “% Activity GMS” value in assay [3] (vs non-treated control) and in assay [3] (setting [4]) was 77.1% throughout. Also, the “% Activity Incidence” value in assay [3] (vs non-treated control) was 33.3%. For the same compound, the “% Activity MMS” value in assay [3] (vs non-treated control) worked out at 63%; in assay [3] (setting [4]), 63.0%.
